This test concerns the target T1, human Kv7.2+3 (Homo sapiens, UniProt O43525+O43526).
T1 construct: expressed in transfected cells; host or cells: HEK293
Briefly: FLIPR-based characterization of Kv7.2+3 modulators (thallium influx). In kind it is cell-based. The settings on record: HEK293 cells over-expressing human Kv7.2+3; for EC50: Tl+ influx, BTC-AM, FLIPR, relative to retigabine control responses; for Efficacy: maximal response relative to the reference (retigabine) response. How it is done: This experiment determines the ability of a test compound to modulate the activity of Kv7.2+3 channels heterologously expressed in human HEK293 cells. The ability is determined relative to retigabine. The activity is determined using a standard thallium (I) sensitive assay, e.g. using a fluorometric method in a Fluorescent Image Plate Reader (FLIPR) as described below in more detail.
Full concentration/response curves are generated and EC50 values are calculated based on max values. EC50 values (Effective Concentration) represent the concentration of the test substance, at which 50% of the channel activity is obtained when compared to retigabine control responses. Maximal response determined relative to the reference (retigabine) response is calculated.
Human HEK293 cells over-expressing human Kv7.2+3 are grown in culture medium (DMEM supplemented with 10% foetal bovine serum), in polystyrene culture flasks ([…]) in a humidified atmosphere of 5% CO2 in air, at 37° C. Cell confluence should be 80-90% on day of plating. Cells are rinsed with 4 ml of PBS (phosphate buffered saline) and incubated 2 min with 1 ml of Trypsin-EDTA. After addition of 25 ml of culture medium cells are re-suspended by trituration with a 25 ml pipette.
The cells are seeded at a density of ˜3×10^6 cells/ml (25 μl/well) in black-walled, clear bottom, 384-well plates pre-treated with 0.01 g/l poly-D-lysin (20 μl/well for ≧30 min). Plated cells were allowed to proliferate for 24 h before loading with dye.
BTC-AM (50 mg, Invitrogen) is added 25.5 μl DMSO. The BTC-AM stock solution (2 mM) is diluted to a final concentration of 2 μM in Cl^− free assay buffer (in mM: 140 Na^+-gluconate, 2.5 K^+-gluconate, 6 Ca2^+-gluconate, 1 Mg^2+ gluconate, 5 glucose, 10 HEPES, pH 7.3) containing 2 μM ouabain, 2 mM amaranth and 1 mM tartrazine.
The culture medium is aspirated from the wells, the cells are washed thrice in Cl^− free assay buffer, and 25 μl of the BTC-AM loading solution is added to each well. The cells are incubated at 37° C. for 60 min.
After the loading period, the Tl^+-sensitive BTC fluorescence signal is measured over time using a FLIPR.
• Temperature: Room temp. • First addition: 12 μl test or control compound after 15 sec at a rate of 30 μl/sec and starting height of 20 μl • Second addition: 12 μl stimulus buffer (Cl^− free assay buffer supplemented with 1 mM Tl2SO4, 5 mM K2SO4 as well as the quenchers amaranth (2 mM) and tartrazine (1 mM)) is added after an additional 3 minutes at a rate of 30 μl/sec and starting height of 30 μl • Reading intervals: First sequence—3 sec×5, 2 sec×24 and 5 sec×25 • Second sequence—1 sec×5, 2 sec×24 and 5 sec×36 Addition plates (compound plate and stimulus plate) are placed in positions 2 and 3, respectively. Cell plates are placed in position 1 and run using the “KCNQ (two additions)” program. FLIPR will then take the appropriate measurements in accordance with the interval settings above. Fluorescence obtained after stimulation is corrected for the mean basal fluorescence (in Cl^− free assay buffer).
Full concentration/response curves are generated and EC50 values (“Effective Concentration”; the concentration at which 50% of the channel activity is obtained when compared to retigabine control responses) are calculated based on peak values. Maximal response determined relative to the reference (retigabine) response is calculated.

Data on three compounds can be found in patent US20120059037A1, “SUBSTITUTED PYRIDINE DERIVATIVES AND THEIR MEDICAL USE” (NEUROSEARCH A/S, priority 2009, published 2012).

The term EC50 denotes the concentration needed to bring the measured effect to its halfway point. A low value points to an effect from little substance.

In turn, `O=C(Cc1cc(F)cc(F)c1)Nc1ccc(NCc2ccc(Cl)nc2)nc1N1CCCC1` [Compound 1.1, N-{6-[(6-Chloro-pyridin-3-ylmethyl)-amino]-2-pyrrolidin-1-yl-pyridin-3-yl}-2-(3,5-difluoro-phenyl)-acetamide] showed an EC50 of 66 nM and an Efficacy of 100%.

Turning to `CC(C)(C)CC(=O)Nc1ccc(NCc2ccc(Cl)nc2)nc1N1CCCC1` [Compound 1.3, N-{6-[(6-Chloro-pyridin-3-ylmethyl)-amino]-2-pyrrolidin-1-yl-pyridin-3-yl}-3,3-dimethyl-butyramide], the EC50 was 66 nM and the Efficacy came out at 100%.

`O=C(Cc1cc(F)cc(F)c1)Nc1ccc(NCc2cccnc2)nc1N1CCCC1` [Compound 1.2, 2-(3,5-Difluoro-phenyl)-N-{6-[(pyridin-3-ylmethyl)-amino]-2-pyrrolidin-1-yl-pyridin-3-yl}-acetamide] registered a 50% effective concentration (EC50) of 20 nM and an Efficacy of 108%.
